Patent US6677431B2, “Design, preparation, and properties of antibacterial β-peptides” (The Trustees of the University of Pennsylvania, priority 1999, dated 2004)
pIC50: −log10 of the molar value. Read-outs that look alike come from different tables or passages of the source. No end group written: not given here.

Assays:
K91 E. coli = format: cell-based; details: K91, 9 h, pH 7.4
Procedure: (§1) The biological activities of these peptides were measured using human erythrocytes and E. coli as models for mammalian and bacterial cells, respectively. Hemolysis was monitored in 10 mM Tris, 150 mM NaCl, pH 7.0, while the bacterial assay was conducted in minimal media M9 (Table 1); both of these solutions are sufficiently transparent to allow CD and ultracentrifugation measurements (supplementary material). Under the assay conditions, the peptides gave CD spectra similar to those in Tris buffer, with the exception of H-(β^3-HLeu-β^3-HLys-β^3-HLeu)n-OH, n=5 and 6.
Antibacterial assay was performed by incubation of K 91 E. coli and peptide of different concentrations in minimal media, at pH 7.4. The peptide solution (50 μL) and K 91 E. coli culture (20 μL, grown in minimal media for 24 hr-36 hr) were mixed with 1 mL minimal media. […] The peptide dose required for 50% suppress of bacterial growth was obtained from the smooth fitted OD600 vs. log[peptide] curve.
(§2) The activity and selectivity of peptide 1 and peptide 2 were examined by antibacterial assay and hemolysis experiments. E. Coli and human erythrotytes (RBC) were used as models for bacterial cell and mammalian cell, respectively. The peptide concentration required for 50% bacterial growth suppression (IC50), and peptide concentration required for 50% RBC lysis (HD50) are listed in Table 3. […] The antibacterial activities of peptide 1 and peptide 2 are about the same except peptide 2 has slightly lower IC50. Similar trend has been observed in the previous study, that longer peptide tends to have higher activity. However, the difference in IC50 is much smaller for this series of peptide than the previously studied ones. Antibacterial peptide with good selectivity is usually represented by its low hemolysis ability. […] The HD50 is 670 μM for peptide 1 and 240 μM for peptide 2, which gives a selectivity of 111 for peptide 1 and 60 for peptide 2.

[1] = Hemolysis assay, 50% lysis of RBC's; format: cell-based, human; details: 0.25% suspension of human erythrocytes (RBCs)
Procedure: as §1
(§3) ∇in M9 medium (data from Hamuro et al., ref. 5) # In M9 medium.+Hemolysis experiments were performed by incubating a 0.25% suspension of human RBc's in 10 mM Tris buffer containing […] at pH 7.0 with varying amounts of peptide. The hemolytic dose required to lyse 50% of the RBC's is reported as the HD50.
(§4) Hemolysis experiments were carried out by incubating 0.25% suspension of human erythrocytes (RBC's) with peptides of different concentrations in 150 mM sodium choloride, 10 mM Tris buffer, pH 7.0. The sample was prepared by combining 400 μL of the RBC suspension and […] of the peptide solution. After incubated the sample at 37— C. for 1 hour, the sample was centrifuged at 14,000 rpm for 5 min, and the OD414 of the supernatant was measured. Mellitin (50 μM) was used to get 100% hemolysis. The hemolytic IC50 was obtained by plotting hemolysis percentage vis. peptide concentration, and the concentration required for 50% hemolysis was determined from the smooth curve-fitted graph.
as §2

[2] = In LB medium (data from Oh et al.); cited from earlier work
[3] = test system: human erythrocytes (RBC's); assay: Hemolysis assay, 50% lysis of RBC's; format: cell-based; details: pH 7
Procedure: as §1, §3, §4, §2

osmY-lux fusion = assay: Stress-induced response assay, induction of osmY-lux fusion; format: cell-based; details: Table 4; stress sensed osmotic shock
Procedure: (§5) Stress-induced response and growth inhibition assays were carried out on samples of four of the β-peptide and compared to known polycationic peptides.
(§6) Polymyxin B was tested both rich, LB, medium and defined, M9, medium. The other natural peptides were tested in LB medium.
(§7) The β-peptides were tested in M9 medium. * In LB medium (data from Oh et al. Biochem. Biophys. Acta. 2000,1463: 43-54)
(§8) However, similar to the magainins, no induction of the micF-lux fusion was observed. Also, the minimum inhibitory concentrations (MIC's) were determined to be higher than those reported in the published manuscript.
(§9) Samples of these β-peptides 1 and 2 were evaluated in the stress-induced response assays.
(§10) The biolumenescence data result from test carried out according to U.S. Pat. No. 5,683,868, Highly Sensitive Method For Detecting Environmental Insults, issued Nov. 4, 1997 to LaRossa et al., the entire contents of the disclosure of are hereby incorporated by reference, The tests described in this patent permit antibacterial properties of peptides or any other materials to be assessed. […] Along these lines, FIG. 5 illustrates a relationship between relative light units and minutes of exposure of bacteria to the various materials in the legend. P×B represents polymyxin, a known antibacterial material. In the graph, a decrease in RULs corresponds to a decrease in bacteria. […]

micF-lux fusion = assay: Stress-induced response assay, induction of micF-lux fusion; format: cell-based; details: Table 4; regulatory gene Rob
Procedure: as §5, §6, §7, §8, §9, §10

Molecule | pIC50 (K91 E. coli) | HC50 at 1 h ([1]; human, pH 7) [µM] | MIC* [2] [µM] | other results
CC(C)C[C@H](N)CC(=O)N[C@@H](CCCCN)CC(=O)N[C@H](CC(=O)N[C@H](CC(=O)N[C@@H](CCCCN)CC(=O)N[C@H](CC(=O)O)CC(C)C)CC(C)C)CC(C)C [H-(β^3-HLeu-β^3-HLys-β^3-HLeu)2-OH, H-(b^3-HLeu-b^3-HLys-b^3-HLeu)2-OH] | < 4.00 | > 100 | – | –
CC(C)C[C@@H](CC(=O)O)NC(=O)C[C@H](CCCCN)NC(=O)C[C@@H](NC(=O)C[C@H](CC(C)C)NC(=O)C[C@H](CCCCN)NC(=O)C[C@@H](NC(=O)C[C@H](CC(C)C)NC(=O)C[C@H](CCCCN)NC(=O)C[C@@H](NC(=O)C[C@H](CC(C)C)NC(=O)C[C@H](CCCCN)NC(=O)C[C@@H](N)C(C)C)C(C)C)C(C)C)C(C)C [H-(β^3-HVal-β^3-HLys-β^3-HLeu)4-OH, H-(b^3-HVal-b^3-HLys-b^3-HLeu)4-OH] | 5.68 | 4.2 | – | –
CC(C)C[C@@H](CC(=O)O)NC(=O)C[C@H](CCCCN)NC(=O)C[C@@H](NC(=O)C[C@H](CC(C)C)NC(=O)C[C@H](CCCCN)NC(=O)C[C@@H](NC(=O)OCC1c2ccccc2-c2ccccc21)C(C)C)C(C)C [Fmoc-(β^3-HVal-β^3-HLys-β^3-HLeu)2-OH, Fmoc-(b^3-HVal-b^3-HLys-b^3-HLeu)2-OH] | < 4.00 | > 100 | – | –
Magainin 1 (GIGKFLHSAGKFGKAFVGEIMKS; Magainin-1; UniProt P11006 37-59, looked up) [known polycationic natural peptide (frog skin)] | – | – | 12 | –
Cecropin A (KWKLFKKIEKVGQNIRDGIIKAGPAVAVVGQATQIAK; ends and bridges not checked; UniProt P01507 27-63, looked up) [known polycationic natural peptide] | – | – | 0.1 | –
Polymyxin E | – | – | 0.15 | –
CC(C)C[C@@H](CC(=O)O)NC(=O)C[C@H](CCCCN)NC(=O)C[C@@H](NC(=O)C[C@H](CC(C)C)NC(=O)C[C@H](CCCCN)NC(=O)C[C@@H](N)C(C)C)C(C)C [H-(β^3-HVal-β^3-HLys-β^3-HLeu)2-OH, H-(b^3-HVal-b^3-HLys-b^3-HLeu)2-OH] | < 4.00 | > 100 | – | –
CC(C)C[C@@H](CC(=O)O)NC(=O)C[C@H](CCCCN)NC(=O)C[C@@H](NC(=O)C[C@H](CC(C)C)NC(=O)C[C@H](CCCCN)NC(=O)C[C@@H](NC(=O)C[C@H](CC(C)C)NC(=O)C[C@H](CCCCN)NC(=O)C[C@@H](N)C(C)C)C(C)C)C(C)C [H-(β^3-HVal-β^3-HLys-β^3-HLeu)3-OH, H-(b^3-HVal-b^3-HLys-b^3-HLeu)3-OH] | 4.39 | – | – | HC50 at 1 h ([1]; 0.25% human erythrocytes, 10 mM Tris, 150 mM NaCl, pH 7.0, 1 h at 37° C., read-out: Hemolysis HD50): 86 µM
Magainin 2 | – | – | 5 | –
CC(C)C[C@@H](CC(=O)O)NC(=O)C[C@H](CCCCN)NC(=O)C[C@@H](NC(=O)C[C@H](CC(C)C)NC(=O)C[C@H](CCCCN)NC(=O)C[C@@H](NC(=O)C[C@H](CC(C)C)NC(=O)C[C@H](CCCCN)NC(=O)C[C@@H](NC(=O)OCC1c2ccccc2-c2ccccc21)C(C)C)C(C)C)C(C)C [Fmoc-(β^3-HVal-β^3-HLys-β^3-HLeu)3-OH, Fmoc-(b^3-HVal-b^3-HLys-b^3-HLeu)3-OH] | 4.82 | 6.3 | – | HD50+ [3]: 6.3 µM
Polymyxin B | – | – | 0.2 | –
CC(C)C[C@@H](CC(=O)O)NC(=O)C[C@H](CCCCN)NC(=O)C[C@@H](NC(=O)C[C@H](CC(C)C)NC(=O)C[C@H](CCCCN)NC(=O)C[C@@H](NC(=O)C[C@H](CC(C)C)NC(=O)C[C@H](CCCCN)NC(=O)C[C@@H](NC(=O)C[C@H](CC(C)C)NC(=O)C[C@H](CCCCN)NC(=O)C[C@@H](NC(=O)OCC1c2ccccc2-c2ccccc21)C(C)C)C(C)C)C(C)C)C(C)C [Fmoc-(β^3-HVal-β^3-HLys-β^3-HLeu)4-OH, Fmoc-(b^3-HVal-b^3-HLys-b^3-HLeu)4-OH] | 5.82 | 0.31 | – | –
Cecropin B (KWKVFKKIEKMGRNIRNGIVKAGPAIAVLGEAKAL; ends and bridges not checked; UniProt P01508 27-61, looked up) [known polycationic natural peptide] | – | – | 0.1 | –
CC(C)C[C@H](N)CC(=O)N[C@@H](CCCCN)CC(=O)N[C@H](CC(=O)N[C@H](CC(=O)N[C@@H](CCCCN)CC(=O)N[C@H](CC(=O)N[C@H](CC(=O)N[C@@H](CCCCN)CC(=O)N[C@H](CC(=O)N[C@H](CC(=O)N[C@@H](CCCCN)CC(=O)N[C@H](CC(=O)N[C@H](CC(=O)N[C@@H](CCCCN)CC(=O)N[C@H](CC(=O)N[C@H](CC(=O)N[C@@H](CCCCN)CC(=O)N[C@H](CC(=O)O)CC(C)C)CC(C)C)CC(C)C)CC(C)C)CC(C)C)CC(C)C)CC(C)C)CC(C)C)CC(C)C)CC(C)C)CC(C)C [H-(β^3-HLeu-β^3-HLys-β^3-HLeu)6-OH, H-(b^3-HLeu-b^3-HLys-b^3-HLeu)6-OH] | – | 0.081 | – | HD50+ [3]: 0.081
CC(C)C[C@H](N)CC(=O)N[C@@H](CCCCN)CC(=O)N[C@H](CC(=O)N[C@H](CC(=O)N[C@@H](CCCCN)CC(=O)N[C@H](CC(=O)N[C@H](CC(=O)N[C@@H](CCCCN)CC(=O)N[C@H](CC(=O)O)CC(C)C)CC(C)C)CC(C)C)CC(C)C)CC(C)C [H-(β^3-HLeu-β^3-HLys-β^3-HLeu)3-OH, H-(b^3-HLeu-b^3-HLys-b^3-HLeu)3-OH] | 4.46 | > 100 | – | –
CC(C)C[C@H](N)CC(=O)N[C@@H](CCCCN)CC(=O)N[C@H](CC(=O)N[C@H](CC(=O)N[C@@H](CCCCN)CC(=O)N[C@H](CC(=O)N[C@H](CC(=O)N[C@@H](CCCCN)CC(=O)N[C@H](CC(=O)N[C@H](CC(=O)N[C@@H](CCCCN)CC(=O)N[C@H](CC(=O)O)CC(C)C)CC(C)C)CC(C)C)CC(C)C)CC(C)C)CC(C)C)CC(C)C [H-(β^3-HLeu-β^3-HLys-β^3-HLeu)4-OH, H-(b^3-HLeu-b^3-HLys-b^3-HLeu)4-OH] | 5.77 | 2.6 | – | HD50+ [3]: 2.6 µM
Polymyxin [reference compound] | – | – | – | osmY gene fusion response (osmY-lux fusion): yes; micF gene fusion response (micF-lux fusion): yes
CC(C)C[C@H](N)CC(=O)N[C@@H](CCCCN)CC(=O)N[C@H](CC(=O)N[C@H](CC(=O)N[C@@H](CCCCN)CC(=O)N[C@H](CC(=O)N[C@H](CC(=O)N[C@@H](CCCCN)CC(=O)N[C@H](CC(=O)N[C@H](CC(=O)N[C@@H](CCCCN)CC(=O)N[C@H](CC(=O)N[C@H](CC(=O)N[C@@H](CCCCN)CC(=O)N[C@H](CC(=O)O)CC(C)C)CC(C)C)CC(C)C)CC(C)C)CC(C)C)CC(C)C)CC(C)C)CC(C)C)CC(C)C [H-(β^3-HLeu-β^3-HLys-β^3-HLeu)5-OH, H-(b^3-HLeu-b^3-HLys-b^3-HLeu)5-OH] | – | 0.23 | – | HD50+ [3]: 0.23 µM
